Results: ChEMBL document CHEMBL4406802, “Human disorders associated with inflammation and the evolving role of natural products to overcome” (Eur J Med Chem, 2019)
Values belong to the compound of their own block, whether it stands above or below them.

Assays:
BV-2 = experiment: Antiinflammatory activity in mouse BV2 cells assessed as inhibition of LPS-induced nitric oxide production; assay type: functional, cell-based
RAW264.7 [1] = experiment: Antiinflammatory activity in mouse RAW264.7 cells assessed as inhibition of LPS-induced nitric oxide production; assay type: functional, cell-based
[2] = target: T1, Prostaglandin G/H synthase 2 (Ovis aries, UniProt P79208); experiment: Inhibition of ovine COX2 using arachidonic acid as substrate by enzyme immunoassay
T1 sequence (P79208 whole entry): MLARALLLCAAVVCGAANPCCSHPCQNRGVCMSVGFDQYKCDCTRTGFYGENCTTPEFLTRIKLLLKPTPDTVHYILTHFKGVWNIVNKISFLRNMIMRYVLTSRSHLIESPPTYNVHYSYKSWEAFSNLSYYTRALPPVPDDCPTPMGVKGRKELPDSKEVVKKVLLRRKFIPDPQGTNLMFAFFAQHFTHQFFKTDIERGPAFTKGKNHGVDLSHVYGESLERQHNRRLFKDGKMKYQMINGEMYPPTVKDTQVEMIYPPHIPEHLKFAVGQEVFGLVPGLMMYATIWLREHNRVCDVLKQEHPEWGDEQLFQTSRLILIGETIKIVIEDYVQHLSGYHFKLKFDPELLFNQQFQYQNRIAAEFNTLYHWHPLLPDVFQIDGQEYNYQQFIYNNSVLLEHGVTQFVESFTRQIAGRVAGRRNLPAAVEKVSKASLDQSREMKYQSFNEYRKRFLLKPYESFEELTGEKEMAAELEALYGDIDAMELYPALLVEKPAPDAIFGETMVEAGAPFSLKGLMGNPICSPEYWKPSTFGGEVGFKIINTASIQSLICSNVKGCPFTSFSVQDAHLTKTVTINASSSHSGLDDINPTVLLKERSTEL

[3] = target: T2, Prostaglandin G/H synthase 1 (Ovis aries, UniProt P05979); experiment: Inhibition of ovine COX1
T2 sequence (P05979 whole entry): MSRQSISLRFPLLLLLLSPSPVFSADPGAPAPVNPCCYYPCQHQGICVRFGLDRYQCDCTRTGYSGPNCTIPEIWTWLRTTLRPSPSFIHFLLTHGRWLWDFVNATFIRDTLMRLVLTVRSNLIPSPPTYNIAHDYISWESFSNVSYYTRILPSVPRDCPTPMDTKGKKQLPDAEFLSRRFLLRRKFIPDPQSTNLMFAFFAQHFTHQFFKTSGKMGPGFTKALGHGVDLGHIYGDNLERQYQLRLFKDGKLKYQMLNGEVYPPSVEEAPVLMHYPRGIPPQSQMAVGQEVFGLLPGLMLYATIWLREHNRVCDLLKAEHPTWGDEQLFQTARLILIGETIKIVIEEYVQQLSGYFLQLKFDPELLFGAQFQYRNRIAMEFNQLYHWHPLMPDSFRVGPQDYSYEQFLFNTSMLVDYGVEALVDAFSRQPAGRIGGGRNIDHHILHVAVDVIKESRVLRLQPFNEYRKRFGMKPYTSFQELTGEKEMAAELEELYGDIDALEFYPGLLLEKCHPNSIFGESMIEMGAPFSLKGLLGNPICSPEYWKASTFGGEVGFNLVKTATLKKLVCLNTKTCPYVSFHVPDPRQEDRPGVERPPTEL

[4] = target: T1, Prostaglandin G/H synthase 2; experiment: Inhibition of ovine COX2
RAW264.7 [5] = experiment: Antiinflammatory activity in mouse RAW264.7 cells assessed as inhibition of LPS-induced nitric oxide production at 10 uM preincubated for 2 hrs followed by LPS stimulation measured after 24 hrs by Griess reagent based assay relative to control; assay type: functional
RAW264.7 [6] = experiment: Antiinflammatory activity in mouse RAW264.7 cells assessed as inhibition of LPS-induced nitric oxide production at 50 uM preincubated for 2 hrs followed by LPS stimulation measured after 24 hrs by Griess reagent based assay relative to control; assay type: functional
RAW264.7 [7] = experiment: Antiinflammatory activity in mouse RAW264.7 cells assessed as inhibition of LPS-induced nitric oxide production at 20 uM preincubated for 2 hrs followed by LPS stimulation measured after 24 hrs by Griess reagent based assay relative to control; assay type: functional
[8] = Inhibition of ovine 5-lox by EIA; set-up: species or system Ovis aries
[9] = target: T1, Prostaglandin G/H synthase 2; experiment: Inhibition of ovine COX2 by EIA
RAW264.7 [10] = experiment: Antiinflammatory activity in mouse RAW264.7 cells assessed as inhibition of nitric oxide production; assay type: functional, cell-based
Interleukin-1 beta = Interleukin-1 beta (Homo sapiens, UniProt P01584); experiment: Inhibition of IL1-beta (unknown origin)
[11] = target: Nitric oxide synthase, inducible (Homo sapiens, UniProt P35228); experiment: Inhibition of iNOS (unknown origin)
Sequence of Nitric oxide synthase, inducible (P35228 whole entry): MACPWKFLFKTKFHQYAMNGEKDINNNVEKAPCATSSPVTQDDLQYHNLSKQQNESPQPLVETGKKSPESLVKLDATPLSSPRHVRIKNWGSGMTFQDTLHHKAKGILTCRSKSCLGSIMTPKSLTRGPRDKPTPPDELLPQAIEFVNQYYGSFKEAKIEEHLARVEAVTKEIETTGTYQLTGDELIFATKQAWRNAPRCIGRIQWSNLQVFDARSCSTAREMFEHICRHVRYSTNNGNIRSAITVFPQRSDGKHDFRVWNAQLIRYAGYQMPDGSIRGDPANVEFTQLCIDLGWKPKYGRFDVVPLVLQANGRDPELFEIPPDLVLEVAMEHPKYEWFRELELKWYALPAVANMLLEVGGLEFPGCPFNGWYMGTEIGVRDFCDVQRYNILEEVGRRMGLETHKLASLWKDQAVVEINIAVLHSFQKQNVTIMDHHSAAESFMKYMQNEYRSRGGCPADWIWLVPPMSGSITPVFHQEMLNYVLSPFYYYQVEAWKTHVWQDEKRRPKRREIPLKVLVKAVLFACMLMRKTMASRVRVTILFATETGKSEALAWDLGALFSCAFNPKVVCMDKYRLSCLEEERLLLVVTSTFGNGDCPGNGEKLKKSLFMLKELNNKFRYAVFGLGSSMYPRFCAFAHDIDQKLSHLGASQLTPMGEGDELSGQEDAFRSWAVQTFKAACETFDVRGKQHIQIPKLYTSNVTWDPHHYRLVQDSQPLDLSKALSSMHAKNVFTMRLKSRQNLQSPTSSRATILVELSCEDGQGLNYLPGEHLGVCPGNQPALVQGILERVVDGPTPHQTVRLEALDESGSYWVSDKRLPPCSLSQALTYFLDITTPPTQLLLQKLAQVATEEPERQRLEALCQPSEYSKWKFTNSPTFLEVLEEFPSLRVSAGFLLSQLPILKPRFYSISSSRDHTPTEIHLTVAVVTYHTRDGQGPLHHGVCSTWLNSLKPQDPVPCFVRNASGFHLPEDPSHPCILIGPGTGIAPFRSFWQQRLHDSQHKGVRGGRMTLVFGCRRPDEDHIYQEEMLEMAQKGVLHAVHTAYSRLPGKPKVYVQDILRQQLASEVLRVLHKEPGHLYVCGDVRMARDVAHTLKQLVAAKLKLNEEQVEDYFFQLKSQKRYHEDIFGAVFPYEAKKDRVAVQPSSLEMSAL

Sequence of Interleukin-1 beta (P01584 117-269 limits assumed): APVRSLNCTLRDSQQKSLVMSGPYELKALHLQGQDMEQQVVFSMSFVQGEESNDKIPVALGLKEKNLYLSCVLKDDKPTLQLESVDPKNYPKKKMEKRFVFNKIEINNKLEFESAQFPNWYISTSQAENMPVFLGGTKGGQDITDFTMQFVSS

SMILES: C=C1[C@@H]([C@@]2(C)[C@@H](O)CC(=O)C(C)(C)[C@@H]2[C@@H](O)C(=O)OC)CC[C@@]2(C)[C@H](C3=C[C@@H](O)CC3=O)CC(=O)C[C@]12O
IC50 (BV-2): 4.97 µM | IC50 (RAW264.7 [1]): 5.04 µM

SMILES: COc1cc(/C=C/c2ccccc2)c(C(=O)O)c(O)c1CC=C(C)C
inhibition at 10 µM (RAW264.7 [5]): 21.2% | inhibition at 50 µM (RAW264.7 [6]): 40.9% | inhibition at 20 µM (RAW264.7 [7]): 30.6%

SMILES: CC(C)=CCC/C(C)=C/Cc1c(O)cc(O)c(C(=O)C(C)C)c1O
IC50 [8]: 2.2 µM | IC50 [9]: 29.9 µM

SMILES: C/C=C(\C)C(=O)O[C@H]1[C@H](OC(C)=O)[C@@]23C[C@@]1(O)O[C@H]1C[C@]4(C)C(=CC[C@H]4c4ccoc4)[C@](C)(C(=O)C[C@H]2C(C)C)C13 (stereo partly drawn)
IC50 (Interleukin-1 beta): 7.8 µM | IC50 [11]: 7.8 µM

More lines, now with the values ahead:

IC50 [2]: 2.8 µM
SMILES: CCOC(=O)[C@H](CO)NC(=O)c1cccc(O)c1O

IC50 [3]: 300 µM | IC50 [4]: 830 µM
SMILES: CC(C)=CCCC(C(=O)O)C1CNC(=N)N1 (stereo not drawn)

IC50 (RAW264.7 [10]): 51.9 µM
SMILES: COc1cc2c(cc1C)C1=C(C)C(=O)OC1C(O)C2C (stereo not drawn)
